# Laboratory results reported in patent US5639786A (priority 1994, dated 1997).
# Key:
# [1] = tested on: Vibrio cholerae neuraminidase; conditions: Meindl and Tuppy 1969; cited from earlier work
# [2] = tested on: influenza B/Victoria/102/85; test: Inhibition of influenza virus replication in vitro, plaque reduction in MDCK cells (Flu B); assay type: cell-based; conditions: 72 h, influenza B/Victoria/102/85, MDCK cells, 3 days, read-out: I50 Plaque Assay (μg/ml) Flu B
# [3] = tested on: influenza A/Singapore/1/57 (H2N2); test: microbe, parasite or virus in culture; assay type: cell-based; conditions: H2N2, MDCK, 72 h, read-out: I50 Plaque Assay (μg/ml) Flu A
# [4] = biological target: N2 influenza neuraminidase (Influenza A virus (A/Aichi/2/1968(H3N2)), UniProt Q75VQ4); conditions: read-out: NA1 (μg/ml), virion X31, MUN substrate, pH 6.5, 15 minutes at 37° C.
# N2 influenza neuraminidase (Influenza A virus (A/Aichi/2/1968(H3N2)), UniProt Q75VQ4), sequence (Q75VQ4 whole entry, looked up): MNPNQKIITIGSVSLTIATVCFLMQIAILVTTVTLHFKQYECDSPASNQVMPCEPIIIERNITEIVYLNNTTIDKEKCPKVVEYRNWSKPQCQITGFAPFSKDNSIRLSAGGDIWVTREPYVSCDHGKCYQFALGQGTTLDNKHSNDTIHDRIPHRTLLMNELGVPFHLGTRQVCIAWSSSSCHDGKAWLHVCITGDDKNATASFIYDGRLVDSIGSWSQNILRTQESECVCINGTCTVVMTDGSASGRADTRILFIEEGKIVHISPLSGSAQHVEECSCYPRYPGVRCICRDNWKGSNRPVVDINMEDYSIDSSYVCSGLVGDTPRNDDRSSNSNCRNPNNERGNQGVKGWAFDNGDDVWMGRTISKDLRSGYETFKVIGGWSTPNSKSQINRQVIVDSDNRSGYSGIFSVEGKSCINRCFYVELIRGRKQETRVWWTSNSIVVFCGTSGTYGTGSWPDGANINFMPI
# [5] = tested on: influenza and parainfluenza viruses; conditions: Palese et al., Virology 1974; cited from earlier work
# [6] = prior art; cited from earlier work
Structure (SMILES),IC50 [2] [µg/mL],IC50 [3] [µg/mL],IC50 [4] [nM],further results
CC(=O)N[C@H]1[C@H]([C@H](O)[C@H](O)CO)OC(C(=O)O)C[C@@H]1O (some centres unmarked) [2-deoxy-N-acetylneuraminic acid],,,,inhibition of Vibrio cholerae neuraminidase [1]: did not inhibit
"CC(=O)N[C@H]1[C@H]([C@H](O)[C@H](O)CO)OC(C(=O)O)=C[C@@H]1NC(N)=N[N+](=O)[O-] [Example 4, 5-(Acetylamino)-4-[[amino(nitroimino)methyl]amino]-2,6-anhydro-3,4,5-trideoxy-D-glycero-D-galacto-2-enonic acid]",24,,,
"CC(=O)N[C@H]1[C@H]([C@H](O)[C@H](O)CO)OC(C(=O)O)=C[C@@H]1NC(=N)NO [Example 2, 5-(Acetylamino)-4-[[amino(hydroxyimino)methyl]amino]-2,6-anhydro-3,4,5-trideoxy-D-glycero-D-galacto-non-2-enonic acid]",< 0.1,0.1,1720,
"CC(=O)N[C@H]1[C@H]([C@H](O)[C@H](O)CO)OC(C(=O)O)=C[C@@H]1NC(=N)NN [Example 1, 5-(Acetylamino)-4-[[amino(aminoimino)methyl]amino]-2,6-anhydro-3,4,5-trideoxy-D-glycero-D-galacto-non-2-enonic acid]",3,2.9,3740,
CCOC(=O)N=C(N)N[C@H]1C=C(C(=O)O)O[C@@H]([C@H](O)[C@H](O)CO)[C@@H]1NC(C)=O [Example 5],0.6,,,
"O=C(O)C1=CC(O)C(NC(=O)C(F)(F)F)C(C(O)C(O)CO)O1 (centres unmarked) [FANA, 2-deoxy-2,3-dehydro-N-trifluoroacetyl-neuraminic acid]",,,,inhibition of multi-cycle replication of influenza and parainfluenza viruses in vitro [5]: inhibits multi-cycle replication; antiviral activity in vivo [6]: inactive in vivo
